Target: PI3K-alpha (Homo sapiens (Human), UniProt P42336)
Assay: HTRF PI3K biochemical assay, alpha isoform
Conditions: ratio PI3K-alpha IC50 value/PI3K-delta IC50 value

Chain of PI3K-alpha (P42336 whole entry, looked up, canonical isoform): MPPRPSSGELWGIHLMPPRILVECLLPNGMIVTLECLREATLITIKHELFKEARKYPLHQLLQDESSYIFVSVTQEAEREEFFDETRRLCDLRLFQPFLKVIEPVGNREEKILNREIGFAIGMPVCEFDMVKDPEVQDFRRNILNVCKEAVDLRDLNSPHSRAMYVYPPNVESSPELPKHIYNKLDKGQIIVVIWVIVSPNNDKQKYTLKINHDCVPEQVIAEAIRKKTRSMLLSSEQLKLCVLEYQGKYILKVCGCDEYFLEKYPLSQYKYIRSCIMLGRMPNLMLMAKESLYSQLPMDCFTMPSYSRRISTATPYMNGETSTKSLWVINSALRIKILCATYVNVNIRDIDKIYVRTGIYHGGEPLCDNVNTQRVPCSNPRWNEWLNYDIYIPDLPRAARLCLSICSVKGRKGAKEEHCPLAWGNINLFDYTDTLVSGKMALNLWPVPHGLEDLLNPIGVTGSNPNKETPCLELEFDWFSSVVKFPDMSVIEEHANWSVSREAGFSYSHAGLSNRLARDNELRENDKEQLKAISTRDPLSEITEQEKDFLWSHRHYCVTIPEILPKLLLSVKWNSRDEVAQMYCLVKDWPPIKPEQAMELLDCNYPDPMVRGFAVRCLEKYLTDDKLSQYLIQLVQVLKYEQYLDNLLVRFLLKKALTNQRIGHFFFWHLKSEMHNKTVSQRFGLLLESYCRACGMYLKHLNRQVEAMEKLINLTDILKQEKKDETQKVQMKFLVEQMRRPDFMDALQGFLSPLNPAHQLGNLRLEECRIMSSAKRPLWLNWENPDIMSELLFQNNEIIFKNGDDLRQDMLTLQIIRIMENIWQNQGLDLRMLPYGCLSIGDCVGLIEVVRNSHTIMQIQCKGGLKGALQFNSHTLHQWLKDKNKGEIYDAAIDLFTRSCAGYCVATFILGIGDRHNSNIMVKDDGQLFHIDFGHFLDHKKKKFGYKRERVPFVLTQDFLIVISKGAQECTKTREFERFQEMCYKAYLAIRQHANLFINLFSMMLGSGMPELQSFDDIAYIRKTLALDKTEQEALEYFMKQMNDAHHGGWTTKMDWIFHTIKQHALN
Chain of PI3K-alpha (P27986 whole entry partner, looked up, canonical isoform): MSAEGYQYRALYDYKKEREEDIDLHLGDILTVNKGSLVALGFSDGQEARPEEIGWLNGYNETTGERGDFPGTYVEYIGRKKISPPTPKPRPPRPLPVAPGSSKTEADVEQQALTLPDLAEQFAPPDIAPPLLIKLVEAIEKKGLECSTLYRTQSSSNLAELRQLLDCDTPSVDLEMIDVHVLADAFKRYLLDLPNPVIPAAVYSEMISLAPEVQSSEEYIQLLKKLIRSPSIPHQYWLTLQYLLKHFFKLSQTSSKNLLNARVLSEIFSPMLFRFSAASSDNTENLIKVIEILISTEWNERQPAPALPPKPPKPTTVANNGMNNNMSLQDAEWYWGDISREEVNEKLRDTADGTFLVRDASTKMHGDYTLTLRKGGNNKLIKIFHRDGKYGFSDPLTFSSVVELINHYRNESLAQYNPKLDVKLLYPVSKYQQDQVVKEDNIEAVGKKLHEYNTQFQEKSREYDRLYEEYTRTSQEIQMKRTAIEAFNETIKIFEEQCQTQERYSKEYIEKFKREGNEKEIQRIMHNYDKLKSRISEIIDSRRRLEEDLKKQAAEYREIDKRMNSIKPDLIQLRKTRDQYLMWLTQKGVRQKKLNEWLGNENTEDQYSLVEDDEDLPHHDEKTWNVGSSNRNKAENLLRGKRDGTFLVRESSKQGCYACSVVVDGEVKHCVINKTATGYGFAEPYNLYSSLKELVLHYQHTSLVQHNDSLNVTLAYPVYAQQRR

| Compound | Relative Selectivity versus PI3Kalpha |
| --- | --- |
| CCn1c(-c2cnc(C)nc2)nc2c(O[C@H]3CCN(C(=O)c4cocn4)C3)ncnc21 [Compound 2-136, 9-ethyl-8-(2-methylpyrimidin-5-yl)-6-{[(3S)-1-(1,3-oxazol-4-ylcarbonyl)pyrrolidin-3-yl]oxy}-9H-purine] | >10 |
| CCn1c(-c2cnc(C)nc2)nc2c(OC3(C)CCN(C(=O)C4CC4)C3)ncnc21 (stereo not shown) [Compound 2-141, 6-{[1-(cyclopropylcarbonyl)-3-methylpyrrolidin-3-yl]oxy}-9-ethyl-8-(2-methylpyrimidin-5-yl)-9H-purine] | >10 |
| CCn1c(-c2ccc(OC(F)(F)F)cc2)nc2c(O[C@H]3CCN(C(=O)C4CC4)C3)ncnc21 [Compound 2-142, 6-{[(3S)-1-(cyclopropylcarbonyl)pyrrolidin-3-yl]oxy}-9-ethyl-8-[4-(trifluoromethoxy)phenyl]-9H-purine] | >10 |
| CCn1c(-c2ccc(OC)nc2)nc2c(O[C@H]3CCN(C(=O)C4CC4)C3)ncnc21 [Compound 2-143, 6-{[(3S)-1-(cyclopropylcarbonyl)pyrrolidin-3-yl]oxy}-9-ethyl-8-(6-methoxypyridin-3-yl)-9H-purine] | >10 |
| CCn1c(-c2ccnc(OC)c2)nc2c(O[C@H]3CCN(C(=O)C4CC4)C3)ncnc21 [Compound 2-144, 6-{[(3S)-1-(cyclopropylcarbonyl)pyrrolidin-3-yl]oxy}-9-ethyl-8-(2-methoxypyridin-4-yl)-9H-purine] | >10 |
| CCn1c(-c2ccc(C(F)(F)F)nc2)nc2c(O[C@H]3CCN(C(=O)C4CC4)C3)ncnc21 [Compound 2-145, 6-{[(3S)-1-(cyclopropylcarbonyl)pyrrolidin-3-yl]oxy}-9-ethyl-8-[6-(trifluoromethyl)pyridin-3-yl]-9H-purine] | >10 |
| CCn1c(-c2ccc(C(F)(F)F)cc2)nc2c(O[C@H]3CCN(C(=O)C4CC4)C3)ncnc21 [Compound 2-146, 6-{[(3S)-1-(cyclopropylcarbonyl)pyrrolidin-3-yl]oxy}-9-ethyl-8-[4-(trifluoromethyl)phenyl]-9H-purine] | >10 |
| CCn1c(-c2ccc(OC(F)F)nc2)nc2c(O[C@H]3CCN(C(=O)C4CC4)C3)ncnc21 [Compound 2-147, 6-{[(3S)-1-(cyclopropylcarbonyl)pyrrolidin-3-yl]oxy}-8-[6-(difluoromethoxy)pyridin-3-yl]-9-ethyl-9H-purine] | >10 |
| CCC(=O)N1CC[C@H](Oc2ncnc3c2nc(-c2ccc4cn[nH]c4c2)n3C)C1 [Compound 3-1, (S)-1-(3-((8-(1H-indazol-6-yl)-9-methyl-9H-purin-6-yl)oxy)pyrrolidin-1-yl)propan-1-one] | >10 |
| CCC(=O)N1CC[C@H](Oc2ncnc3c2nc(-c2ccc(C(F)(F)F)nc2)n3C)C1 [Compound 3-2, (S)-1-(3-((9-methyl-8-(6-(trifluoromethyl)pyridin-3-yl)-9H-purin-6-yl)oxy)pyrrolidin-1-yl)propan-1-one] | >10 |
| CCC(=O)N1CC[C@H](Oc2ncnc3c2nc(-c2cnc4[nH]ccc4c2)n3C)C1 [Compound 3-3, (S)-1-(3-((9-methyl-8-(1H-pyrrolo[2,3-b]pyridin-5-yl)-9H-purin-6-yl)oxy)pyrrolidin-1-yl)propan-1-one] | >10 |
| CCC(=O)N1CC[C@H](Oc2ncnc3c2nc(-c2ccc4cc[nH]c4c2)n3C)C1 [Compound 3-4, (S)-1-(3-((8-(1H-indol-6-yl)-9-methyl-9H-purin-6-yl)oxy)pyrrolidin-1-yl)propan-1-one] | >10 |
| CCC(=O)N1CC[C@H](Oc2ncnc3c2nc(-c2ccc4[nH]ncc4c2)n3C)C1 [Compound 3-5, (S)-1-(3-((8-(1H-indazol-5-yl)-9-methyl-9H-purin-6-yl)oxy)pyrrolidin-1-yl)propan-1-one] | >10 |

From US9730940B2, “Purine inhibitors of human phosphatidylinositol 3-kinase delta” (priority 2012, dated 2017)
